US8653096B2, “Chemokine receptor antagonists and methods of use thereof” (Millennium Pharmaceuticals, Inc., priority 2001, dated 2014)

Molecular target: T1, RANTES/MIP-1α chemokine receptor (CCR1) in THP-1 cell membranes (Homo sapiens, UniProt P32246)
T1 construct: Membranes were prepared from THP-1 cells (ATCC #TIB202); host or cells: THP-1 cells (membrane preparation)
T1 sequence (P32246 1-355): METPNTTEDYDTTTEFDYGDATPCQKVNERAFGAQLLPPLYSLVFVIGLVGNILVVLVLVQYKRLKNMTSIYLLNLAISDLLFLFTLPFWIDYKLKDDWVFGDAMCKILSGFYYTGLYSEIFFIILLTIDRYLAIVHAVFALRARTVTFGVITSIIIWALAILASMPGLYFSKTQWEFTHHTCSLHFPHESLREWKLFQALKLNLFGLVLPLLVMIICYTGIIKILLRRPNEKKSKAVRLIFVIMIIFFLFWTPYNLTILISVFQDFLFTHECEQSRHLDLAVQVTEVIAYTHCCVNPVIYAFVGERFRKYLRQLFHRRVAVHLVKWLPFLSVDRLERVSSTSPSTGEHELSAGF
Assay: Receptor binding assay: 125I-RANTES or 125I-MIP-1α binding to THP-1 cell membranes
Conditions: inhibitor concentration required for 50% inhibition of specific binding; 125I-RANTES or 125I-MIP-1α as ligand, THP-1 cell membranes; read-out: IC50
Description: Membranes were prepared from THP-1 cells (ATCC #TIB202). Cells were harvested by centrifugation, washed twice with PBS (phosphate-buffered saline), and the cell pellets were frozen at −70 to −85° C. The frozen pellet was thawed in ice-cold lysis buffer consisting of 5 mM HEPES (N-2-hydroxyethylpiperazine-N′-2-ethane-sulfonic acid) pH 7.5, 2 mM EDTA (ethylenediaminetetraacetic acid), 5 μg/ml each aprotinin, leupeptin, and chymostatin (protease inhibitors), and 100 μg/ml PMSF (phenyl methane sulfonyl fluoride—also a protease inhibitor), at a concentration of 1 to 5×10^7 cells/ml. This procedure results in cell lysis. The suspension was mixed well to resuspend all of the frozen cell pellet. Nuclei and cell debris were removed by centrifugation of 400×g for 10 minutes at 4° C. The supernatant was transferred to a fresh tube and the membrane fragments were collected by centrifugation at 25,000×g for 30 minutes at 4° C. The supernatant was aspirated and the pellet was resuspended in freezing buffer consisting of 10 mM HEPES pH 7.5, 300 mM sucrose, 1 μg/ml each aprotinin, leupeptin, and chymostatin, and 10 μg/ml PMSF (approximately 0.1 ml per each 10^8 cells). All clumps were resolved using a minihomogenizer, and the total protein concentration was determined using a protein assay kit (Bio-Rad, Hercules, Calif., cat #500-0002). The membrane solution was then aliquoted and frozen at −70 to −85° C. until needed.
Binding Assays utilized the membranes described above. […] The binding reactions were performed in 60 to 100 μl of a binding buffer consisting of 10 mM HEPES pH 7.2, 1 mM CaCl2, 5 mM MgCl2, and 0.5% BSA (bovine serum albumin), for 60 min at room temperature. The binding reactions were terminated by harvesting the membranes by rapid filtration through glass fiber filters (GF/B or GF/C, Packard) which were presoaked in 0.3% polyethyleneimine. The filters were rinsed with approximately 600 μl of binding buffer containing 0.5 M NaCl, dried, and the amount of bound radioactivity was determined by scintillation counting in a Topcount beta-plate counter.
Specific binding is defined as the total binding minus the non-specific binding; non-specific binding is the amount of cpm still detected in the presence of excess unlabeled Rantes or MIP-1α.

Compound	IC50
4-(4-Chlorophenyl)-1-[3-(5,11-dihydro-7-methoxy[1]benzoxepino[2,3-b]pyridin-5-ylidene)propyl]piperidin-4-ol [Example 45]	< 1 µM
4-(4-Chlorophenyl)-1-[3-(5,11-dihydro-7-methoxy[1]benzoxepino[2,3-b]pyridin-5-ylidene)propyl]piperidine [Example 65]	< 1 µM
4-(4-Chlorophenyl)-1-[3-(5,11-dihydro-7-methylaminocarbonyl[1]benzoxepino[2,3-b]pyridin-5-ylidene)propyl]piperidin-4-ol [Example 268]	< 1 µM
4-(4-Chlorophenyl)-1-[3-(5,11-dihydro-7-methylaminocarbonylmethyloxy[1]benzoxepino[2,3-b]pyridin-5-ylidene)propyl]piperidin-4-ol [Example 182]	< 1 µM
4-(4-Chlorophenyl)-1-[3-(5,11-dihydro-7-morpholinocarbonylmethyloxy[1]benzoxepino[2,3-b]pyridin-5-ylidene)propyl]piperidin-4-ol [Example 135]	< 1 µM
4-(4-Chlorophenyl)-1-[3-(5,11-dihydro-7-phenyl[1]benzoxepino[2,3-b]pyridin-5-ylidene)propyl]piperidin-4-ol [Example 291]	< 1 µM
4-(4-Chlorophenyl)-1-[3-(5,11-dihydro-7-propargyloxy[1]benzoxepino [2,3-b]pyridin-5-ylidene)propyl]piperidin-4-ol [Example 173]	< 1 µM
4-(4-Chlorophenyl)-1-[3-(5,11-dihydro-7-propoxy[1]benzoxepino[2,3-b]pyridin-5-ylidene)propyl]piperidin-4-ol [Example 128]	< 1 µM
4-(4-Chlorophenyl)-1-[3-(5,11-dihydro-8-methoxy[1]benzoxepino[2,3-b]pyridin-5-ylidene)propyl]piperidin-4-ol [Example 114]	< 1 µM
4-(4-Chlorophenyl)-1-[3-(5,11-dihydro-9-methoxy[1]benzoxepino[2,3-b]pyridin-5-ylidene)propyl]piperidin-4-ol [Example 166]	< 10 µM
4-(4-Chlorophenyl)-1-[3-(5,11-dihydro[1]benzothiepino[2,3-b]pyridin-5-ylidene)propyl]piperidin-4-ol [Example 111]	< 1 µM
4-(4-Chlorophenyl)-1-[3-(7-(2-ethoxycarboxy)ethyl-5,11-dihydro[1]benzoxepino[2,3-b]pyridin-5-ylidene)propyl]piperidin-4-ol [Example 288]	< 1 µM
4-(4-Chlorophenyl)-1-[3-(7-(2-furyl)-5,11-dihydro[1]benzoxepino[2,3-b]pyridin-5-ylidene)propyl]piperidin-4-ol [Example 292]	< 1 µM
4-(4-Chlorophenyl)-1-[3-(7-carboxymethyl-5,11-dihydro[1]benzoxepino[2,3-b]pyridin-5-ylidene)propyl]piperidin-4-ol [Example 120]	< 1 µM
4-(4-Chlorophenyl)-1-[3-(7-cyanomethyloxy-5,11-dihydro[1]benzoxepino[2,3-b]pyridin-5-ylidene)propyl]piperidin-4-ol [Example 49]	< 1 µM
4-(4-Chlorophenyl)-1-[3-(7-cyclopentoxy-5,11-dihydro[1]benzoxepino[2,3-b]pyridin-5-ylidene)propyl]piperidin-4-ol [Example 174]	< 1 µM
4-(4-Chlorophenyl)-1-[3-(7-cyclopropylmethyloxy-5,11-dihydro [1]benzoxepino[2,3-b]pyridin-5-ylidene)propyl]piperidin-4-ol [Example 130]	< 1 µM
4-(4-Chlorophenyl)-1-[3-(7-diethylaminocarbonyl-5,11-dihydro[1]benzoxepino[2,3-b]pyridin-5-ylidene)propyl]piperidin-4-ol [Example 270]	< 1 µM

Compound	IC50
4-(4-Chlorophenyl)-1-[3-(7-diethylaminocarbonylmethyloxy-5,11-dihydro[1]benzoxepino[2,3-b]pyridin-5-ylidene)propyl]piperidin-4-ol [Example 263]	< 1 µM
4-(4-Chlorophenyl)-1-[3-(7-dimethylaminocarbonyl-5,11-dihydro[1]benzoxepino[2,3-b]pyridin-5-ylidene)propyl]piperidin-4-ol [Example 198]	< 1 µM
4-(4-Chlorophenyl)-1-[3-(7-dimethylaminocarbonylmethyl-5,11-dihydro[1]benzoxepino[2,3-b]pyridin-5-ylidene)propyl]piperidin-4-ol [Example 122]	< 1 µM
4-(4-Cyanophenyl)-1-[3-(5,11-dihydro-7-methoxy[1]benzoxepino[2,3-b]pyridin-5-ylidene)propyl]piperidin-4-ol [Example 141]	< 1 µM
4-(5-Chloro-2-keto-1-benzimidazolinyl)-1-[3-(5,11-dihydro-7-methoxy[1]benzoxepino[2,3-b]pyridin-5-ylidene)propyl]piperidine [Example 85]	< 1 µM
4-(5-Chloropyridin-2-yl)-1-[3-(5,11-dihydro-7-methoxy[1]benzoxepino[2,3-b]pyridin-5-ylidene)propyl]piperidin-4-ol [Example 83]	< 1000 µM
4-(7-Chloro-1,2-benzisoxazol-3-yl)-1-[3-(5,11-dihydro-7-methoxy[1]benzoxepino[2,3-b]pyridin-5-ylidene)propyl]piperidine [Example 185]	< 1000 µM
4-(7-Chloroindol-3-yl)-1-[3-(5,11-dihydro-7-methoxy[1]benzoxepino[2,3-b]pyridin-5-ylidene)propyl]-1,2,3,6-tetrahydropyridine [Example 195]	< 10 µM
4-(7-Chloroindol-3-yl)-1-[3-(5,11-dihydro-7-methoxy[1]benzoxepino[2,3-b]pyridin-5-ylidene)propyl]piperidine [Example 186]	< 1 µM
4-(p-Chloroanilino)-1-[3-(5,11-dihydro-7-methoxy[1]benzoxepino[2,3-b]pyridin-5-ylidene)propyl]piperidine [Example 86]	> 10 µM
4-Azido-4-(4-chlorophenyl)-1-[3-(5,11-dihydro-7-methoxy[1]benzoxepino[2,3-b]pyridin-5-ylidene)propyl]piperidine [Example 187]	< 1 µM
4-Benzyl-1-[3-(5,11-dihydro-7-methoxy[1]benzoxepino[2,3-b]pyridin-5-ylidene)propyl]piperidin-4-ol [Example 62]	< 10 µM
4-Cyano-1-[3-(5,11-dihydro-7-methoxy[1]benzoxepino[2,3-b]pyridin-5-ylidene)propyl]-4-phenylpiperidine [Example 63]	< 10 µM
5-Chloro-1′-[3-(5,11-dihydro-7-(2-methoxyethyl)oxy[1]benzoxepino[2,3-b]pyridin-5-ylidene)propyl]spiro[isobenzofuran-1(3H), 4′-piperidine] [Example 197]	< 1 µM
5-Chloro-1′-[3-(5,11-dihydro-7-methoxy[1]benzoxepino[2,3-b]pyridin-5-ylidene)propyl]spiro[isobenzofuran-1(3H), 4′-piperidine] [Example 91]	< 1 µM
8-[3-(5,11-Dihydro-7-methoxy[1]benzoxepino[2,3-b]pyridin-5-ylidene)propyl]-1-phenyl-1,3,8-triazaspiro[4,5]decan-4-one [Example 69]	< 1 µM
CC(C)(O)c1ccc2c(c1)C(=CCCN1CC[C@](O)(c3ccc(Cl)cc3)[C@H](C#N)C1)c1cccnc1CO2 (relative stereo) [Example 479, Trans-4-(4-Chloro-phenyl)-4-hydroxy-1-{3-[7-(1-hydroxyl-1-methyl-ethyl)-11H-10-oxa-1-aza-dibenzo[a,d]cyclohepten-5-ylidene]-propyl}-piperidin-3-carbonitrile]	< 1 µM
